Test results: the NIST ThermoML archive (doi:10.1021/je200038n)

Assay: wn = mass fraction of the nth substance listed
Details: 3000 kPa, Liquid; for mass density: Vibrating tube method; for viscosity: Moving piston method

N#C[S-].[Na+] [sodium thiocyanate] + N
Details | mass density [kg/m3] | viscosity [mPa·s]
269.4 K, w2 = 0.8921 | 707.7 | –
269.8 K, w2 = 0.8921 | – | 0.27
270.4 K, w2 = 0.614 | 896.5 | –
270.4 K, w2 = 0.6824 | 850 | –
270.5 K, w2 = 0.4998 | 965.7 | –
270.5 K, w2 = 0.797 | 772.7 | –
270.6 K, w2 = 0.614 | – | 1.41
270.6 K, w2 = 0.6824 | – | 0.82
270.8 K, w2 = 0.4998 | – | 3.47
270.8 K, w2 = 0.797 | – | 0.44
274.8 K, w2 = 0.614 | 892.6 | –
274.8 K, w2 = 0.797 | 767.4 | –
274.9 K, w2 = 0.614 | – | 1.27
274.9 K, w2 = 0.6824 | 848 | 0.77
275 K, w2 = 0.4998 | 962.2 | 3.08
275 K, w2 = 0.797 | – | 0.4
275.2 K, w2 = 0.8921 | 699.9 | –
275.4 K, w2 = 0.8921 | – | 0.25
279.3 K, w2 = 0.6824 | 844 | –
279.4 K, w2 = 0.614 | 888.8 | 1.14
279.4 K, w2 = 0.6824 | – | 0.7
279.4 K, w2 = 0.797 | 761.7 | 0.37
279.5 K, w2 = 0.4998 | 959.3 | 2.75
283.8 K, w2 = 0.6824 | 839 | –
283.9 K, w2 = 0.797 | 756.4 | –
284 K, w2 = 0.614 | 884.9 | 1.06
284 K, w2 = 0.6824 | – | 0.65
284.1 K, w2 = 0.4998 | 955.9 | 2.43
284.1 K, w2 = 0.797 | – | 0.35
284.2 K, w2 = 0.8921 | 686.6 | –
284.3 K, w2 = 0.8921 | – | 0.22
288.6 K, w2 = 0.614 | 881.6 | –
288.6 K, w2 = 0.6824 | 834 | –
288.6 K, w2 = 0.797 | 750.7 | –
288.7 K, w2 = 0.4998 | 952.2 | 2.2
288.7 K, w2 = 0.6824 | – | 0.61
288.7 K, w2 = 0.797 | – | 0.33
293.3 K, w2 = 0.614 | 878.3 | –
293.3 K, w2 = 0.6824 | 831 | 0.57
293.4 K, w2 = 0.4998 | 948.2 | 1.95
293.4 K, w2 = 0.614 | – | 0.89
293.4 K, w2 = 0.797 | 745.1 | 0.31
293.5 K, w2 = 0.8921 | 674 | 0.2
298 K, w2 = 0.614 | – | 0.83
298 K, w2 = 0.6824 | 828 | 0.52
298.1 K, w2 = 0.4998 | – | 1.73
298.1 K, w2 = 0.614 | 875.8 | –
298.2 K, w2 = 0.4998 | 944.6 | –
302.7 K, w2 = 0.797 | – | 0.28
302.8 K, w2 = 0.614 | 870 | 0.76
302.8 K, w2 = 0.6824 | – | 0.49
302.8 K, w2 = 0.8921 | – | 0.18
302.9 K, w2 = 0.4998 | – | 1.57
302.9 K, w2 = 0.6824 | 821 | –
302.9 K, w2 = 0.797 | 734.7 | –
303 K, w2 = 0.4998 | 941 | –
303 K, w2 = 0.8921 | 660.5 | –
307.5 K, w2 = 0.614 | – | 0.71
307.5 K, w2 = 0.6824 | – | 0.46
307.5 K, w2 = 0.797 | – | 0.26
307.6 K, w2 = 0.4998 | – | 1.41
307.6 K, w2 = 0.614 | 866.2 | –
307.6 K, w2 = 0.6824 | 817 | –
307.6 K, w2 = 0.797 | 729.5 | –
307.7 K, w2 = 0.4998 | 937.1 | –
312.2 K, w2 = 0.6824 | – | 0.43
312.2 K, w2 = 0.797 | – | 0.24
312.2 K, w2 = 0.8921 | – | 0.16
312.3 K, w2 = 0.4998 | – | 1.27
312.3 K, w2 = 0.614 | – | 0.66
312.3 K, w2 = 0.6824 | 811 | –
312.4 K, w2 = 0.4998 | 933.3 | –
312.4 K, w2 = 0.614 | 862.3 | –
